Measurements published in patent publication EP0616805A1, “Use of acyl L-carnitine gamma-hydroxybutyrate for the treatment of alcoholism” (Sigma-Tau Industrie Farmaceutiche Riunite S.p.A., priority 1993, dated 1994).

Key:
Type in all cases: in vivo, Wistar male rats
alcohol-dependent rats = experiment: modified Vogel test (licks at shock-linked drinking vessel) in alcohol-dependent rats; conditions: 100 mg/kg intraperitoneal at ethanol suspension; rats given 10% ethanol for 6 months; 10 min. exposure period; saline group 38.5 ± 8.5
Experimental: Wistar male rats (housed in groups of 5 per cage) were used, kept in conditions of constant light-dark alternation at 21°C and fed with standard laboratory feed. The animals were chronically administered 10% ethanol ad lib. for 6 months.
To assess the activity, if any, of VCGB on the anxiety component involved in the compulsive act of searching for alcohol, a modified version of the Vogel test was used as described by Keppler D. et al. in Exp. Mol. Path. 9, 279 (1968).
Prior to the start of the experiment the animals were deprived of water for 48 h. At the time of ethanol treatment suspension, the animals were divided into 4 groups who were given the following intraperitoneal administrations: the first group (A) received saline solution (15 ml/kg), the second group (B) VCGB (100 mg/kg), the third group (C) GHB (100 mg/kg) and the fourth group (D) IVC ([…]).
On the day of the test, the animals were provided with two drinking vessels, one containing water and the other a mixture of water and ethanol (90:10 v/v) in bottles, the metal spouts of which were connected up to a source of electricity: after every 5 licks at the drinking vessel an electric shock (1 mA) was delivered for 10 min. which obliged the animal to withdraw, overcoming its desire to drink the water-alcohol solution. Refusal of the animals to drink the water-alcohol solution, confining their attention only to the vessel containing water alone, was taken as an indication of efficacy. In evaluating the results, the numbers of licks were compared for treated animals versus controls over the 10 min. exposure period.

[1] = test system: rats chronically administered 10% ethanol; experiment: alcohol withdrawal syndrome: tremors by the Hunt-Majchrowicz method; conditions: 100 mg/kg intraperitoneal, eight hours after suspension of ethanol; for number of tremors, 30 min: saline group 6 ± 2.5; for number of tremors, 60 min: saline group 8 ± 1.5; for number of tremors, 90 min: saline group 7 ± 1.5; for number of tremors, 120 min: saline group 8 ± 2.5
Experimental: The experiment was performed in Wistar male rats housed in groups of 5 per cage under conditions of constant light-dark alternation at 21°C and fed with standard laboratory feed. The animals were chronically administered 10% ethanol ad lib. for 6 months.
Eight hours after suspension of ethanol administration, the animals were divided into 4 groups of 5 rats each.
The first group (A) was administered saline solution intraperitoneally (15 ml/kg), the second group (B) was given VCGB (100 mg/kg), again intraperitoneally, the third group (C) received GHB (100 mg/kg), while the fourth group (D) was given IVC (100 mg/kg). For the purposes of assessing the effects induced by the above-mentioned treatments on occurrence of alcohol withdrawal syndrome, tremors were measured in the rat, where, as in man, they are the most characteristic sign of withdrawal syndrome. Evaluation of the number of tremors was done using the method described by Hunt and Majchrowicz (see Hunt W.A. and Majchrovicz E., Journal of Pharmacology and Experimental Therapeutics, 213, 9-12 (1980). The results are given here below in Table 2. TABLE 2.

[2] = test system: rats chronically treated with alcohol; experiment: alcohol withdrawal syndrome: convulsions on sound stimulation (electric bell, 100 dB, 1 min); conditions: 100 mg/kg intraperitoneal, eight hours after suspension of ethanol; test one hour after treatment; saline group 9/10
Experimental: The experiment was performed in Wistar male rats housed in groups of 5 per cage under constant light-dark alternation at 21°C and fed with standard laboratory feed. The animals were chronically administered 10% ethanol ad lib. for 6 months.
Eight hours after suspension of ethanol administration the animals were divided into 4 groups of 10 rats each. The first group (A) were administered saline solution (15 ml/kg) intraperitoneally, the second group (B) VCGB (100 mg/kg), again intraperitoneally, the third group (C) GHB (100 mg/kg) and the last group (D) IVC (100 mg/kg). For the purposes of evaluating the effects of the treatment on occurrence of alcohol withdrawal syndrome, the rats' susceptibility to onset of behavioral reactions (convulsions) due to emission of sound for 1 min by an electric bell (100 dB) was observed. The experiment was performed in all groups of rats one hour after treatment, and the results are given here below in Table 3.

[3] = test system: lipoperoxidation in the CNS of rats; experiment: lipoperoxidation in the CNS: cerebral malonaldehyde (MDA) after chronic ethanol treatment; conditions: brain homogenate; 10% ethanol for two months, then 100 mg/kg single intraperitoneal dose; Control 0.543 ± 0.19, Ethanol 1.12 ± 0.13
Experimental: This study was conducted in order to assess what variations in malonaldehyde (MDA) occur following VCGB administration, MDA being a reliable and quantifiable index of the vulnerability of the central nervous system to damage due to free radicals as a result of the detrimental effects of ethanol.
The experiment was conducted in Wistar male rats housed in groups of 5 per cage under constant light-dark alternation at 21°C and fed with standard laboratory feed. Two groups of rats, each comprising 5 animals, were administered 10% ethanol in water throughout the treatment period. A third group of animals was kept on a standard laboratory diet without receiving any treatment. After two months of ethanol treatment the animals in the first group were administered VCGB in aqueous solution (100 mg/kg) in a single intraperitoneal dose. A few days after treatment, the animals were sacrificed and the brains promptly removed. MDA was measured using a modified micromethod described by Slater and Sawyer (Slater T. F. and Sawyer B. C., 1971, J. Biochem. Tokyo 8: 2180). […] The samples were placed in boiling water for 10 min, and after cooling absorbance was determined at 532 nm using a spectrophotometer. […] Proteins were measured by the Smith method (Smith et al., 1985, Analyt. Biochem. 27: 502), using bicinchoninic acid as reagent. […]

## CC(C)CC(=O)O[C@H](CC(=O)OCCCC(=O)[O-])C[N+](C)(C)C [VCGB, isovaleryl L-carnitine gamma-hydroxybutyrate]
alcohol-dependent rats
  Number of licks: 5.6 ± 1.14
[1]
  number of tremors, 30 min: 0 ± 0.25
  number of tremors, 60 min: 0 ± 0
  number of tremors, 90 min: 0 ± 0.75
  number of tremors, 120 min: 0 ± 0.25
[2]
  Animals with convulsions/animals treated: 1/10
[3]
  MDA: 0.497 ± 0.15 nmol/mg protein

## CC(C)CC(=O)O[C@H](CC(=O)[O-])C[N+](C)(C)C [IVC, isovaleryl L-carnitine]
alcohol-dependent rats
  Number of licks: 35.2 ± 7.4
[1]
  number of tremors, 30 min: 4 ± 2
  number of tremors, 60 min: 5 ± 2
  number of tremors, 90 min: 5 ± 1.5
  number of tremors, 120 min: 6 ±2
[2]
  Animals with convulsions/animals treated: 6/10

## O=C(O)CCCO [GHB, gamma-hydroxybutyric acid]
alcohol-dependent rats
  Number of licks: 11 ± 2.4 ▲
[1]
  number of tremors, 30 min: 2 ± 0.5
  number of tremors, 60 min: 1 ± 0.5
  number of tremors, 90 min: 2 ± 1
  number of tremors, 120 min: 3 ± 1
[2]
  Animals with convulsions/animals treated: 4/10
